Reference: ChEMBL document CHEMBL4387706, “Discovery of Novel Spiroindoline Derivatives as Selective Tankyrase Inhibitors” (J Med Chem, 2019)
Converted amounts (≈) assume the structure as drawn.

Assays:
[1] = molecular target: T1, Poly [ADP-ribose] polymerase tankyrase-2 (Homo sapiens, UniProt Q9H2K2)
T1 sequence (Q9H2K2 whole entry): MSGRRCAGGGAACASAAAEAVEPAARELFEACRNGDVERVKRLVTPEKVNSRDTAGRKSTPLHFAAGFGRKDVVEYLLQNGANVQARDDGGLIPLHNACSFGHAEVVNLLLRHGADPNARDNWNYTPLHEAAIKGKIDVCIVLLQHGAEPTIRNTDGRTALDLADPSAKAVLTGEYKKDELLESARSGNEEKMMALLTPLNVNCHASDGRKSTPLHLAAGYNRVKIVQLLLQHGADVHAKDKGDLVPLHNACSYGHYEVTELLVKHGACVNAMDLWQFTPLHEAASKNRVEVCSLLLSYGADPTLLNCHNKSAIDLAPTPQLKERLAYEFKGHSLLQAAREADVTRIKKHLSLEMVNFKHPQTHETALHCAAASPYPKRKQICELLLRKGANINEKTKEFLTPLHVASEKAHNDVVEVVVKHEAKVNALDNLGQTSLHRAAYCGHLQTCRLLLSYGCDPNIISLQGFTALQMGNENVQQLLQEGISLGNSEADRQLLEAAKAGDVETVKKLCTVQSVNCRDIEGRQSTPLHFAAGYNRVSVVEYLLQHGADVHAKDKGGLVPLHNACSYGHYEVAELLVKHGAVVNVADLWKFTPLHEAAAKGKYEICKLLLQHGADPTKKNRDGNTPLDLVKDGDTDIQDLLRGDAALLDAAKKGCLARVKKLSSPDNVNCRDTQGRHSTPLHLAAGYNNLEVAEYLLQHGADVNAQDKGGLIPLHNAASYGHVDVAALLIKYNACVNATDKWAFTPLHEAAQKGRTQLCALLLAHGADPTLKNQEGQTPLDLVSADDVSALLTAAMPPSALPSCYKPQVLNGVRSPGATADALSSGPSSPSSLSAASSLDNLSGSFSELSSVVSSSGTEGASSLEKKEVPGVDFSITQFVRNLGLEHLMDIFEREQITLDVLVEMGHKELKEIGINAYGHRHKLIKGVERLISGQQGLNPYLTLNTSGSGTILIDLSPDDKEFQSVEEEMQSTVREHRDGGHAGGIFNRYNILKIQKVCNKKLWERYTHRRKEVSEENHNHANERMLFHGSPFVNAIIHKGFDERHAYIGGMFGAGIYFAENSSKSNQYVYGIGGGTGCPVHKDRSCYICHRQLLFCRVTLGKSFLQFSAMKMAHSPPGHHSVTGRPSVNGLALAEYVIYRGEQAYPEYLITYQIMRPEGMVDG
Description: Inhibition of recombinant human N-terminal TEV cleavage site-fused/FLAG-poly his-tagged TNKS2 SAM-PARP domain (613 to 1166 residues) expressed in Escherichia coli assessed as reduction in auto-PARylation preincubated for 10 mins followed by biotinylated-NAD+ addition and measured after 45 mins by ELISA

[2] = molecular target: T2, Poly [ADP-ribose] polymerase tankyrase-1 (Homo sapiens, UniProt O95271)
T2 sequence (O95271 whole entry): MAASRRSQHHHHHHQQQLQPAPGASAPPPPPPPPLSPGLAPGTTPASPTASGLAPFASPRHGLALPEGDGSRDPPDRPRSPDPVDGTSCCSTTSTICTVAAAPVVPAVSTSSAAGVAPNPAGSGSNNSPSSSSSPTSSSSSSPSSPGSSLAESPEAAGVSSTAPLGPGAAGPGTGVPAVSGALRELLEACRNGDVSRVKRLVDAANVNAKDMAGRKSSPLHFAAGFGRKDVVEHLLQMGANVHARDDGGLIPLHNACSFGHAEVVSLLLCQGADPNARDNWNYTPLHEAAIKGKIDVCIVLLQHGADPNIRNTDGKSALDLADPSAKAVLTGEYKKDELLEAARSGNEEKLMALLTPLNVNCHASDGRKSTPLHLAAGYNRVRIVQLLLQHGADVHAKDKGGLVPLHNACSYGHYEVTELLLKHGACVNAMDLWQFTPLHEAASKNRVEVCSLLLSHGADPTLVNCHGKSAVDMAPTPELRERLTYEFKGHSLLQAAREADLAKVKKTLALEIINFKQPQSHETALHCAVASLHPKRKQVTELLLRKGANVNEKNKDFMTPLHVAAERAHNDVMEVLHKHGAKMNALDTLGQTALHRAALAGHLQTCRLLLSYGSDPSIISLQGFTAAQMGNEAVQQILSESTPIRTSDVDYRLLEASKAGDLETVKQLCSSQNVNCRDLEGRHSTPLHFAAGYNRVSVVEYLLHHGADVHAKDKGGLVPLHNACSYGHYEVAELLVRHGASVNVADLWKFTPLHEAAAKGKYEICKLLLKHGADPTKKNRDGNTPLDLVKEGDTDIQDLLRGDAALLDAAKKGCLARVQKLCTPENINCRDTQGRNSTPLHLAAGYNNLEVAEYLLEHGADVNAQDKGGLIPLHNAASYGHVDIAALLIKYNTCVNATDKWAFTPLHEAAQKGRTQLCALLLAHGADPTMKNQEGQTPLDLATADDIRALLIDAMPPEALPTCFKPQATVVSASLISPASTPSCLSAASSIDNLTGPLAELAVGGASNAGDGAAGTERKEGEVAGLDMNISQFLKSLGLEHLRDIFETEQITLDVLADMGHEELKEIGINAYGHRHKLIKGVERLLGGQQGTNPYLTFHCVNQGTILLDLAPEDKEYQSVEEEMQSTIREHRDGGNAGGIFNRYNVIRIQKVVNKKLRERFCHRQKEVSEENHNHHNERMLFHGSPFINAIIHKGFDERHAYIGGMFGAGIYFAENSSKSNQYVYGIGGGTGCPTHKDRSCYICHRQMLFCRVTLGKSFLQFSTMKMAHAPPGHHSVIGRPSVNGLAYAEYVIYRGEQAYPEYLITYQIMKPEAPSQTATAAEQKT
Description: Inhibition of recombinant human N-terminal TEV cleavage site-fused/FLAG-poly his-tagged TNKS SAM-PARP domain (1024 to 1327 residues) expressed in Escherichia coli assessed as reduction in auto-PARylation preincubated for 10 mins followed by biotinylated-NAD+ addition and measured after 45 mins by ELISA

[3] = molecular target: Poly [ADP-ribose] polymerase 1 (Homo sapiens, UniProt P09874)
Description: Inhibition of recombinant human PARP1 expressed in Escherichia coli assessed as reduction in auto-PARylation using histone as substrate measured after 45 mins in presence of biotinylated-NAD+ by ELISA

[4] = system: COLO 320DM; test: cells; details: Homo sapiens, 96 h
Description: Antiproliferative activity against human COLO320DM cells assessed as inhibition of cell growth measured after 4 days by CellTiter-Glo assay

[5] = molecular target: T3, Tankyrase 1/2 (Homo sapiens, UniProt Q9H2K2+O95271)
T3 sequence (Q9H2K2 whole entry): T1 sequence (Q9H2K2 whole entry)
T3 sequence (O95271 whole entry): T2 sequence (O95271 whole entry)
Description: Inhibition of TNKS/TNKS2 (unknown origin) expressed in human DLD1 cells assessed as reduction in Wnt-signaling measured after 24 hrs by TCF-luciferase reporter gene assay

[6] = physchem; details: phosphate buffer, pH 7.4
[7] = in vitro; details: mouse, liver microsomes
Description: Stability in mouse liver microsomes assessed as parent compound remaining at 1 uM measured after 30 mins in presence of NADPH by LC-MS/MS analysis

[8] = in vitro; details: human, liver microsomes
Description: Stability in human liver microsomes assessed as parent compound remaining at 1 uM measured after 30 mins in presence of NADPH by LC-MS/MS analysis

Sequence of Poly [ADP-ribose] polymerase 1 (P09874 whole entry): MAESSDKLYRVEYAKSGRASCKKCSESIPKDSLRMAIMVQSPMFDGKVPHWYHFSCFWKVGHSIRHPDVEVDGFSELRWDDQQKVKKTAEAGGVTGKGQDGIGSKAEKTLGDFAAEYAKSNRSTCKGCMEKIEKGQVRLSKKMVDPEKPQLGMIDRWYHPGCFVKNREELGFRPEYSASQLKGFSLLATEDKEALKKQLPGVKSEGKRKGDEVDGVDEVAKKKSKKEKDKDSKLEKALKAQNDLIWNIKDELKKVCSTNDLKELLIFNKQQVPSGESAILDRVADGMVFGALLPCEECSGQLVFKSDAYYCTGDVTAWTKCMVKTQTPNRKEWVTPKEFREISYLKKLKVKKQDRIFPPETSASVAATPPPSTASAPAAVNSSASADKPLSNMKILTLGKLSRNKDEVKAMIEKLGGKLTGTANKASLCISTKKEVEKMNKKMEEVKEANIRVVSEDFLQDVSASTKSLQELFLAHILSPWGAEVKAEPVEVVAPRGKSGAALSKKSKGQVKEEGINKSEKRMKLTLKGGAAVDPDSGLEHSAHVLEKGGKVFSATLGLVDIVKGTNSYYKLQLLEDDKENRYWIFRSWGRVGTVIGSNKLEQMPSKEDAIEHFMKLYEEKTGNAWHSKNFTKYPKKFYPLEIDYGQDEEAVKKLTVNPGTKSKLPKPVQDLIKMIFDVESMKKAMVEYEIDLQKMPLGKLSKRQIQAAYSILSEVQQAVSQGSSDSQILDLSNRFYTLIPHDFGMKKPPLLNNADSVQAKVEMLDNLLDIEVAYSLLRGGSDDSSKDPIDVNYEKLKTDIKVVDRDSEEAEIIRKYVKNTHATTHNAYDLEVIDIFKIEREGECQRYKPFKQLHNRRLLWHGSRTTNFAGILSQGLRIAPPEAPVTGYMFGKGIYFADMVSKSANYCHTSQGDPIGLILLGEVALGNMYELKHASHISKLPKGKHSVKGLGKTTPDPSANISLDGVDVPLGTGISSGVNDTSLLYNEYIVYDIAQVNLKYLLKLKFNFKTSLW

Row | Structure (SMILES) | IC50 [1] | IC50 [2] | IC50 [3] | GI50 [4] | IC50 [5] | solubility at 1 h, 200 µM [6] | remaining at 0.5 h, 1 µM [7] | remaining at 0.5 h, 1 µM [8]
1 | O=c1[nH]c(N2CCC3(CC2)NCc2ccccc23)nc2c1CCCC2 | 29.3 nM | 118 nM | > 20000 nM | 22400 nM | 1605 nM | 67 µg/mL (≈ 199 µM) | – | –
2 | O=c1[nH]c(N2CCC3(CC2)COc2ccccc23)nc2c1CCCC2 | 14.6 nM | 43.4 nM | > 20000 nM | 10800 nM | 608 nM | 0.67 µg/mL (≈ 1.99 µM) | 0.1% | 64.3%
3 | COc1cccc(N2CCN(c3nc4c(c(=O)[nH]3)CSCC4)CC2)c1 | 4.8 nM | 6.2 nM | > 20000 nM | 7400 nM | 148 nM | 1.7 µg/mL (≈ 4.74 µM) | – | –
4 | O=C1Nc2ccccc2C12CCN(c1nc3c(c(=O)[nH]1)CCCC3)CC2 | 25.1 nM | 27.6 nM | > 20000 nM | 11200 nM | 591 nM | 64.2 µg/mL (≈ 183 µM) | 0% | 84.3%
5 | COc1ccccc1N1CCCN(c2nc3c(c(=O)[nH]2)CCCC3)CC1 | – | 6010 nM | > 20000 nM | 41900 nM | 9144 nM | 69.6 µg/mL (≈ 196 µM) | – | –
6 | COc1ccc(N2CCN(c3nc4c(c(=O)[nH]3)CSCC4)CC2)cc1 | 2.6 nM | 3.4 nM | > 20000 nM | > 50000 nM | 114 nM | 0.9 µg/mL (≈ 2.51 µM) | – | –
7 | COc1ccccc1C1=CCN(c2nc3c(c(=O)[nH]2)CCCC3)CC1 | 49.7 nM | 35 nM | > 20000 nM | 6300 nM | 1161 nM | 14.2 µg/mL (≈ 42.1 µM) | 91.7% | 99.3%
8 | COc1ccccc1N1CCN(c2nc3c(c(=O)[nH]2)CC(F)(F)CC3)CC1 | 65.5 nM | 19.4 nM | > 20000 nM | 15500 nM | 403 nM | 0.8 µg/mL (≈ 2.13 µM) | – | –
9 | COc1ccc(N2CCN(c3nc4c(c(=O)[nH]3)COCC4)CC2)cc1 | 148 nM | 220 nM | > 20000 nM | > 20000 nM | 2246 nM | 6 µg/mL (≈ 17.5 µM) | – | –
10 | COc1ccc(N2CCN(c3nc4c(c(=O)[nH]3)CC(F)(F)CC4)CC2)cc1 | 36.4 nM | 79.6 nM | > 20000 nM | > 20000 nM | 1971 nM | 1.1 µg/mL (≈ 2.92 µM) | – | –
11 | O=C1Oc2ccccc2C12CCN(c1nc3c(c(=O)[nH]1)CCCC3)CC2 | 18.3 nM | 30.2 nM | > 20000 nM | > 50000 nM | > 10000 nM | 1.17 µg/mL (≈ 3.33 µM) | 0.1% | 28.1%
12 | COc1ccccc1N1CCN(c2nc3c(c(=O)[nH]2)CSCC3)CC1 | 2.3 nM | 2.5 nM | > 20000 nM | 3800 nM | 23.2 nM | 0.5 µg/mL (≈ 1.39 µM) | – | –
13 | COc1ccccc1N1CCN(c2nc3c(c(=O)[nH]2)COCC3)CC1 | 112 nM | 67.6 nM | > 20000 nM | 17100 nM | 1009 nM | 12.3 µg/mL (≈ 35.9 µM) | – | –
14 | COc1ccccc1N1CCN(c2nc3c(c(=O)[nH]2)C[S+]([O-])CC3)CC1 (configuration not stated) | 5340 nM | 6170 nM | > 20000 nM | > 20000 nM | > 10000 nM | 8.8 µg/mL (≈ 23.5 µM) | – | –
15 | O=C1NC2(CCN(c3nc4c(c(=O)[nH]3)CCCC4)CC2)c2ccccc21 | 258 nM | 514 nM | > 20000 nM | 97700 nM | > 10000 nM | 70.1 µg/mL (≈ 200 µM) | – | –
16 | COc1cccc(N2CCN(c3nc4c(c(=O)[nH]3)CCCC4)CC2)c1 | 39.7 nM | 39.4 nM | > 20000 nM | 14200 nM | 1066 nM | 5.2 µg/mL (≈ 15.3 µM) | – | –
17 | O=c1[nH]c(N2CCC3(CC2)OCc2ccccc23)nc2c1CCCC2 | 35.7 nM | 31.5 nM | > 20000 nM | 5800 nM | 342 nM | 1.07 µg/mL (≈ 3.17 µM) | 0% | 76.3%
18 | COc1ccc(N2CCN(c3nc4c(c(=O)[nH]3)CCCC4)CC2)cc1 | 45.5 nM | 35 nM | > 20000 nM | > 20000 nM | 1294 nM | 4.6 µg/mL (≈ 13.5 µM) | – | –
